Laboratory results: patent US6599499B1, “Uses of diterpenoid triepoxides as an anti-proliferative agent” (priority 1999, dated 2003)

What was measured:
[1] = tested on: HT-29 human colon cancer cell line tumors; test: Nude mouse xenograft, established HT-29 colon cancer tumors; format: in vivo, nude mice
Description: HT-29 tumor cells grown in tissue culture were harvested and implanted intradermally on the backs of nude mice. Tumor size was monitored by measuring the dimensions of each tumor and calculating tumor volume with a formula. […] PG490-88 treatment at 0.25 mg/kg was administered daily i.p. 5 days per week for 2 weeks. Navelbine at 10 mg/kg was given i.v. on days 0 and 7. Mice in the combination treatment group received PG490-88 i.p. and Navelbine i.v. at the appropriate times. The treatments were given to mice at 100 μl per 10 g of mouse body weight. Tumor dimensions were measured periodically for calculation of tumor volumes. […] The data are presented as mean percent change in tumor volume from day 0 for each treatment group. Toxicity of the treatment was monitored by weighing the mice daily 5 days per week. In FIG. 8, a comparison is provided for tumor volumes on Days 0 and 14. Tumor dimensions were measured periodically for calculation of tumor volumes, and the final determinations were made on day 14.

Dx5 cells = details: cited from earlier work
H23 human tumor cells = details: day 14; PG490-88 0.25 mg/kg/day; taxol 10 mg/kg/day; IP
Description: Cell death reagents and assays. Cell viability was measured by an MTT assay as recently described (Lee et al. (1999) J. Biol. Chem. 274:13451-13455. z-VAD-fluoromethylketone (z-VAD.fmk) was obtained from Alexis Biochemicals, San Diego, Calif. The effect of z-VAD.fmk on cell viability was analyzed by annexin and propidium iodide staining followed by FACS analysis according to the manufacturer's protocol (Clontech Laboratories, Palo Alto, Calif.). The analysis of apoptosis in histologic sections was done by terminal deoxynucleotidyl transferase (TdT)-mediated d-UTP nick end labeling (TUNEL) of slides from paraffin sections of day 3 tumors harvested from the mice 24 h after the second of two daily treatments with PG490-88 or saline. TUNEL staining was done according to the manufacturer's protocol (Boehringer Mannheim, Indianapolis, Ind.) and then the histology slides were counterstained with methyl green. DNA was isolated from cells for analysis of internucleosomal DNA laddering followed by agarose gel electrophoresis and ethidium bromide staining.
Nude mouse xenograft model. Female NCr nude mice were purchased from Taconic, Germantown, N.Y., and were generally 20-24 grams when used. Mice were kept in autoclaved filter-top microisolator cages with autoclaved water and sterile food ad lib. The cages were maintained in an isolator unit providing filtered air (Lab Products, Inc., Maywood, N.J.). Tumor cells were grown and harvested as described above. NCr nude mice were injected intradermally with 5×10^6 tumor cells. In some experiments, treatment was initiated on the day of tumor cell implantation. […] Mice were treated IP daily for 5 days per week.
H23 tumor cells were implanted intradermally in nude mice. When the tumors reached approximately 100 mm^3, daily IP treatment with PG490-88 was initiated. […] The data in FIG. 3 represents the measurement of H23 tumor volume on day 14 after the initiation of treatment. Nude mice bearing xenografts of H23 human tumor cells were treated daily as shown. The data represent the means and the standard errors of the means of the tumor volumes as percent of the day 0 tumor volumes for each animal measured day 3, 6, 10 and 14 days after the initiation of treatment. There were 5 mice per group.

HT1080 cells = test: Apoptosis by Annexin V and Propidium Iodide staining, HT1080 cells; format: cell-based, human; design: unit of the concentration uncertain; details: HT1080, 20 h, PG490 pretreatment 4 h then CPT-11 16 h
Description: HT1080 cells were treated as shown and harvested for analysis of apoptosis by Annexin V and Propidium Iodide staining 20 h after treatment. In experiments with a combination of PG490 and CPT-11, cells were pretreated with PG490 for 4 h followed by the addition of CPT-11 for 16 h.

HT1080 tumor cells = test: Nude mouse xenograft, established HT1080 tumors; format: in vivo, nude mice; details: PG490-88 0.75 mg/kg IP days 0-5 and 7-11, CPT-11 11 mg/kg IV days 1, 5, 9
Description: Mice. […] Nude mouse xenograft model. HT1080 tumor cells were grown in tissue culture flasks and harvested using EDTA and trypsin. Cells were centrifuged and the concentration of viable cells was appropriately adjusted. […] Tumor size was monitored after tumor cell implantation by measuring the width, length and thickness of the tumors and using a formula to calculate the volume. […] Control mice were left untreated. […] Combination therapy mice received both PG490-88 and CPT-11 treatments.

In the case of `CCC1=C[C@@H]2CN(C1)Cc1c([nH]c3ccccc13)[C@@](C(=O)OC)(c1cc3c(cc1OC)N(C)[C@H]1[C@@](O)(C(=O)OC)[C@H](OC(C)=O)[C@]4(CC)C=CCN5CC[C@]31[C@@H]54)C2` [Navelbine, vinorelbine, reference compound], the “increase in tumor volume from day 0 by day 14” value ([1]; PG490-88 0.25 mg/kg i.p. 5 days per week for 2 weeks, Navelbine 10 mg/kg i.v. days 0 and 7) is reported as 343% and the “Day 0 Tumor Volume (mm^3) Mean” value ([1]; baseline at grouping, before treatment) is reported as 109 mm^3.
In the case of `CC(=O)O[C@H]1C(=O)[C@@]2(C)[C@H]([C@H](OC(=O)c3ccccc3)[C@]3(O)C[C@H](OC(=O)[C@H](O)[C@@H](NC(=O)c4ccccc4)c4ccccc4)C(C)=C1C3(C)C)[C@]1(OC(C)=O)CO[C@@H]1C[C@@H]2O` [taxol, reference compound], the “fold more resistant than the MES-SA parent cell line” value (Dx5 cells) is listed as 1000 fold and the “tumor volume as % of the vehicle control” value (H23 human tumor cells) is listed as 42%.
With `CCc1c2c(nc3ccc(OC(=O)N4CCC(N5CCCCC5)CC4)cc13)-c1cc3c(c(=O)n1C2)COC(=O)[C@]3(O)CC` [CPT-11, irinotecan, reference compound] the “Apoptotic Cells (%)” value (HT1080 cells; CPT-11 (10 µM) alone, (10 μM) in combination with PG490 5 ng/ml) was 5%, the “Apoptotic Cells (%)” value (HT1080 cells; PG490 5 ng/ml, CPT-11 (5 µM) alone, (5 μM) in combination) was 0% and the “TV Mean Day 4” value (HT1080 tumor cells) was 157. For the same compound, the “TV Mean Day 7” value (HT1080 tumor cells) was 209, the “TV Mean Day 10” value (HT1080 tumor cells) was 268 and the “TV Mean Day 14” value (HT1080 tumor cells) was 495. For the same compound, the “TV Mean Day 0” value (HT1080 tumor cells; baseline) was 107.
